Patent US9951060B2, “2-acylaminothiazole derivative or salt thereof” (ASTELLAS PHARMA INC., priority 2014, dated 2018)

Tests used:
[1] = target: T1, human c-Mpl-introduced Ba/F3 cell (Homo sapiens, UniProt P40238); assay: Test Example 2: human c-Mpl-introduced Ba/F3 cell proliferative activity; format: cell-based; details: concentration exhibiting 30% proliferation; 100% = positive control (Example 315 of Patent Document 1) at 1 μM
T1 construct: expressed in transfected cells
T1 sequence (P40238 26-635): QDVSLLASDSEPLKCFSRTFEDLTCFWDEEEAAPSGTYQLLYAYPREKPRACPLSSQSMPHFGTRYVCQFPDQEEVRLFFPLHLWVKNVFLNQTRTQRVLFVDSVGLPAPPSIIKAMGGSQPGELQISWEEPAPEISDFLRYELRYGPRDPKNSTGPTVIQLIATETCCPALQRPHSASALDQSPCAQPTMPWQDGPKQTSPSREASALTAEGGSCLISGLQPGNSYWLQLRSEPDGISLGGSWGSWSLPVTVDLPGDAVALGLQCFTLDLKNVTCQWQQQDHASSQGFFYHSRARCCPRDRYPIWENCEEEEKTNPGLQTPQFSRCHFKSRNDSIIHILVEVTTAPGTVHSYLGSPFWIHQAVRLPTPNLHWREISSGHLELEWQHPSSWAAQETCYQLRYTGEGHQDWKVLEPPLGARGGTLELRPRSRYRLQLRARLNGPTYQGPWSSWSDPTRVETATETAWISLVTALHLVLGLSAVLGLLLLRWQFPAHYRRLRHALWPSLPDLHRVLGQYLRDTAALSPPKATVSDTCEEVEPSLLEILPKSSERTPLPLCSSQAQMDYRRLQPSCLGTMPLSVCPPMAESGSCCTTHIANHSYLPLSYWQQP
How it was run: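 Ba/F3 cells stably expressing human c-Mpl seeded at 1×10^4 cells/well with test substance (100 nM to 10 μM final) in RPMI-1640/10% FBS, overnight at 37 °C. Cell number by WST-type kit absorbance at 450 nm after ~5 h; proliferation % relative to untreated (0%) and reference agonist at 1 μM (100%).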

[2] = system: pelvic nerve stimulation-induced elevation of intravesical pressure; assay: Test Example 4: effect on pelvic nerve stimulation-induced elevation of intravesical pressure in anesthetized rats; format: in vivo, rat; details: 3 mg/kg intravenous; maximum effect within one hour; anesthetized SD female rats; pre-treatment = 100%
Description: Test Example 4: Effect on Pelvic Nerve Stimulation-Induced Elevation of Intravesical Pressure in Anesthetized Rats
The effect of the Example compounds of the present invention in the pelvic nerve electrical stimulation-induced elevation of intravesical pressure using rats as an action of nerve stimulation-dependent bladder contraction in vivo was measured by the following method. That is, SD female rats (Japan SLC, Inc.) were used and its lower abdomen was dissected at the midline under pentobarbital anesthesia (50 mg/kg ip). After ligating and cutting the ureter on both sides, a cannula (PE-50) for measuring the intravesical pressure was inserted into the bladder from the external urethral opening and fixed by a clip. After injecting about 200 μL of saline through the cannula that had been inserted into the bladder, the other side was connected to a pressure transducer to measure the intravesical pressure. Under a stereoscopic microscope observation, the pelvic nerve in the vicinity of the bladder was peeled and an electrode for nerve stimulation (unique Medical) was placed. The abdominal cavity was filled with mineral oil (MP BIOMEDICALS). After placing in a post-operative stabilization period, the pelvic nerve was subjected to electrical stimulation (stimulation voltage: 10 V, stimulation frequency: 8 Hz, pulse width: 0.3 msec, and stimulation time: 10 seconds) to elicit the elevation of intravesical pressure, using an electrical stimulator (Nihon Kohden). By repeating the electrical stimulation at an interval of 2 minutes while adjusting the voltage, the voltage was adjusted to elicit about 50% to 70% elevation of intravesical pressure elicited at 10 V. Thereafter, by repeating the electrical stimulation at an interval of 10 minutes, the increase in the intravesical pressure by electrical stimulation was stabilized three times or more, and the test substance (an administration amount of 3 mg/kg) was then administered from the catheter detained in the vein at a volume of 1 mL/kg, thus measuring an effect of the elevation of the intravesical pressure of the test substance for 1 hour. The test substance was dissolved in water supplemented with 10% dimethylsulfoxide and 10% Cremophor.
The response was applied to a personal computer through a PowerLab (registered trademark) and analyzed by LabChart (registered trademark). The AUC of each elevation of the intravesical pressure was calculated, the intravesical pressure elevation rate (% of pre) after the treatment with the test substance was calculated by taking an average value of the values measured three times before the treatment with the test substance as 100%, and the maximum effect during a period within one hour after administration of the compound was considered as the effect of the test substance.
The elevation rates (% of pre) of the intravesical pressure when some Example compounds were administered at 3 mg/kg are shown in Table 4.

Structure (SMILES) | human c-Mpl-introduced Ba/F3 cell proliferative activity EC30 [1] | Increase rate (% of pre) of intravesical pressure [2]
COc1c(F)cc(-c2nc(NC(=O)c3cnc(N4CCN(CCC(=O)O)CC4)cn3)sc2CN2CCC[C@H]2C)cc1C(F)(F)F [Example 72] | >10 µM | 155 % of pre
C[C@@H]1CCCN1Cc1sc(NC(=O)c2cnc(N3CCN(CCC(=O)O)CC3)cn2)nc1-c1cc(Cl)cs1 [Example 82] | >10 µM | 138 % of pre
C[C@@H]1CCCN1Cc1sc(NC(=O)c2cnc(N3CCN(CCC(=O)O)[C@@H](C)C3)cn2)nc1-c1cc(C(F)(F)F)cs1 [Example 95] | 3 µM | 239 % of pre
C[C@@H]1CC[C@@H](C)N1Cc1sc(NC(=O)c2cnc(N3CCN(CCC(=O)O)CC3)cn2)nc1-c1cc(F)cc(C(F)(F)F)c1 [Example 119] | >10 µM | 173 % of pre
CCOc1ccc(-c2nc(NC(=O)c3cnc(N4CCN(CCC(=O)O)C[C@H]4C)cn3)sc2CN2CCC[C@H]2CC)cc1C(F)(F)F [Example 133] | >10 µM | 150 % of pre
CC[C@@H]1CCCN1Cc1sc(NC(=O)c2cnc(N3CCN(CCC(=O)O)C[C@H]3C)cn2)nc1-c1ccc(OC(C)C)c(C(F)(F)F)c1 [Example 135] | >10 µM | 168 % of pre
C[C@@H]1CCCN1Cc1sc(NC(=O)c2cnc(N3CCN(CC(=O)O)C[C@H]3C)cn2)nc1-c1cc(F)cc(C(F)(F)F)c1 [Example 141] | >10 µM | 175 % of pre
C[C@@H]1CCCN1Cc1sc(NC(=O)c2cnc(N3CCN(CCC(=O)O)[C@@H](C)C3)cn2)nc1-c1cc(Cl)cs1 [Example 142] | 4.7 µM | 199 % of pre

Now from value to compound, other results behind:

human c-Mpl-introduced Ba/F3 cell proliferative activity EC30 [1] | Structure (SMILES) | Increase rate (% of pre) of intravesical pressure [2]
>10 µM | C[C@@H]1CCCN1Cc1sc(NC(=O)c2cnc(N3CCN(CCC(=O)O)CC3)cn2)nc1-c1cc(C2CC2)cc(C(F)(F)F)c1 [Example 67] | 126 % of pre
>10 µM | CCN(CC)Cc1sc(NC(=O)c2cnc(N3CCN(CCC(=O)O)CC3)cn2)nc1-c1cc(F)cc(C(F)(F)F)c1 [Example 109] | 180 % of pre
>10 µM | CCC[C@@H]1CCCN1Cc1sc(NC(=O)c2cnc(N3CCN(CCC(=O)[O-])CC3)cn2)nc1-c1cccc(C(F)(F)F)c1.[Na+] [Example 124] | 143 % of pre
>10 µM | C[C@@H]1CCCN1Cc1sc(NC(=O)c2cnc(N3CCN(CCC(=O)O)C[C@H]3C)cn2)nc1-c1cc(F)cc(C(F)(F)F)c1 [Example 140] | 148 % of pre
7.8 µM | CC[C@@H]1CCCN1Cc1sc(NC(=O)c2cnc(N3CCN(CCC(=O)O)[C@H](C)C3)cn2)nc1-c1cc(Cl)cs1 [Example 143] | 172 % of pre
